In PMC10671074, “Tumor Regression upon Intratumoral and Subcutaneous Dosing of the STING Agonist ALG-031048 in Mouse Efficacy Models” (International Journal of Molecular Sciences, 2023):
pKd: −log10 of the molar value. Values joined by “and” are separate entries in the source; they are usually repeats but may differ in a detail not shown here. Equal values may be shown once. Read-outs that look alike come from different tables or passages of the source. Marks after values point to notes of the source that are not given here.

Tests used:
CT26 tumors = assay: Re-challenge with CT26 of mice with complete tumor regression; type: in vivo, mouse
Procedure: Ten naïve, age-matched female BALB/c mice were used as controls. […] Tumor growth was measured as described above.

HEK 293 reporter cells = assay: Cell viability of HEK 293 reporter cells (CellTiter-Glo); settings: concentrations up to 1000 nM
Procedure: Assays were set up after allowing cells to adhere for 48 h. Compounds dissolved in water were serially diluted in dosing buffer containing 10 µg/mL of digitonin (MP Biomedicals, Solon, OH, USA). Media were aspirated from the cells, and 50 µL of buffer with compound was added in triplicate. […] The next day, 20 µL of media was transferred to two new plates, and either 50 µL of QuantiLuc™ (Invivogen) to measure IFN-β expression or 80 µL of QuantiBlue™ (Invivogen) to measure IRF activity were added. […] An aliquot of 100 µL of CellTiter-Glo® (Promega, Madison, WI, USA) was added to the original plate still containing the cells, and luminescence was determined to measure viability. All readouts were measured on an Envision plate reader from Perkin Elmer. Data were analyzed using GraphPad™ Prism’s version 8.0 [Agonist] vs. response—variable slope (four parameters) model.
with increasing concentrations of the STING agonists or IFN‐β. After 24 hours, IRF reporter activity

Hepa1–6 tumors = assay: Hepa1–6 mouse hepatocellular carcinoma model; type: in vivo
Procedure: The animals were fed ad libitum water (0.2-μm filtered, reverse osmosis, autoclaved), and standard irradiated rodent chow. The mice were housed on autoclaved, crushed corncob bedding, which was changed weekly, on a 12 h light cycle at 20–26 °C and 40–70% humidity.
The Hepa1–6 tumor cells were maintained in vitro in DMEM supplemented with 10% FBS at 37 °C in an atmosphere of 5% CO2 in air. Cells in the exponential growth phase were harvested and quantitated using a cell counter, adjusted to 5 × 10^7/mL in PBS before tumor inoculation.
Each mouse was inoculated subcutaneously in the right front flank region with Hepa1–6 tumor cells (5 × 10^6) in 0.1 mL PBS for tumor development. After tumor cell inoculation, the animals were checked daily for morbidity and mortality and for any effects of tumor growth or test articles on behavior such as mobility, food and water consumption, eye/hair matting, and any other abnormalities. Dosing started when the average tumor volume reached 98 mm^3. The anti-PD-1 antibody was dosed IP at 10 mg/kg twice per week (BIW), while ALG-031048 was dosed IT at 25 and 100 μg/animal on Days 1, 5, and 9. Tumor volumes were measured […], as described above.
Figure S6. A: Tumor regression in Hepa1‐6 tumor‐bearing […] mice upon IT treatment with three doses of 25 μg (light blue) or 100 μ g ALG‐031048 (dark blue), in comparison to treatment with 10 mg/kg anti‐PD‐1 antibody twice per week, 6 doses total (red). Vehicle‐treated animals are shown in black; shown are the mean tumor volumes ± standard deviation for each group of 10 animals.
Irregular, crater‐shaped tumors prevented accurate tumor volume measurement between Days 8‐
25. Treatment started when tumors reached an average volume of 98 mm3. Statistical analysis pro‐ vided in Table S4. B: Tumor weight for each group at the end of the study. Statistical analysis pro‐ vided in Table S5. C: Plasma cytokine levels 6 hours after the first dose. Each symbol represents one animal as well as the mean of the group (n=10). Unpaired t‐test was used to compare different groups: all groups for al l cytokines were statistically significant from each other with P‐values of < 0.0001 with the following exceptions: vehicle vs anti‐PD‐1 were non‐significant (all cytokines); the […]

subcutaneous CT26 tumors = settings: for Delay of tumor growth compared with vehicle / Delayed Response (TV > 10 and <2000 mm^3) / Treatment Failure (TV > 2000 mm^3) / Complete Response (TV < 10 mm^3) / Median Time to Endpoint: 3 × q3d; for Median Time to Endpoint: vehicle 17.0
Procedure: Each mouse was inoculated subcutaneously in the right flank with 3 × 10^5 CT26 cells (in 0.1 mL PBS) for tumor development.
PBS was used as the vehicle control. […] Vehicles and test compounds were administered IT q3d × 3 in a volume of 0.05 mL. SC administration was performed between the shoulder blades at a dosing volume of 10 mL/kg. Tumors were measured twice a week in two dimensions using calipers, and volume was calculated using Formula (1):Tumor Volume (mm^3) = 0.5 (w^2 × l)(1)
Here, w = width and l = length, in mm, of a tumor.
Tumor weight was estimated with the assumption that 1 mg is equivalent to 1 mm^3 of tumor volume.
Animals were euthanized when (1) their tumor reached the endpoint volume of 2000 mm^3, (2) their body weight loss exceeded 30%, or (3) on the last day of the study, whichever came first. The TTE for analysis was calculated for each mouse by the following Equation (2):TTE = (log10 (endpoint volume) − b)/m(2)
TTE is expressed in days, endpoint volume is expressed in mm^3, b is the intercept, and m is the slope of the line obtained via linear regression of a log-transformed tumor growth data set. […] Animals were weighed on Days 1–5, then twice weekly for the duration of the study.

MC38-hPD-L1 tumors = assay: MC38-hPD-L1 mouse colon carcinoma model; type: in vivo; settings: 0.5 mg/kg SC, QW (2×)
Description: Female C57/BL6 mice (Shanghai Lingchang Biotechnology Co., Ltd., Shanghai, China) were 5 to 8 weeks old with a body weight > 16 g at the time of inoculation. Animals were housed and fed as described above.
After inoculation with tumor cells, the animals were checked daily for morbidity and mortality. During routine monitoring, the animals were checked for any effects of tumor growth or test articles on behavior such as mobility, food and water consumption, body weight gain/loss (body weights were measured twice per week after randomization), eye/hair matting, and any other abnormalities. Tumor volumes were measured and calculated as described above.
Each group consisted of 10 animals. The control group was administered 5 mg/kg isotype control antibody in a volume of 10 μL/g of IP, BIW for 2.5 weeks, 5 doses total. The atezolizumab-treated group was administered 5 mg/kg in a volume of 10 μL/g of IP, BIW for 2.5 weeks, 5 doses total. […] Dosing started when average tumor volumes were 70 mm^3.

STING R232 = STING R232 (Homo sapiens, UniProt Q86WV6, H232R); assay: Thermal shift binding assay (differential scanning fluorimetry)
Chain of STING R232 (Q86WV6 139-379 H232R): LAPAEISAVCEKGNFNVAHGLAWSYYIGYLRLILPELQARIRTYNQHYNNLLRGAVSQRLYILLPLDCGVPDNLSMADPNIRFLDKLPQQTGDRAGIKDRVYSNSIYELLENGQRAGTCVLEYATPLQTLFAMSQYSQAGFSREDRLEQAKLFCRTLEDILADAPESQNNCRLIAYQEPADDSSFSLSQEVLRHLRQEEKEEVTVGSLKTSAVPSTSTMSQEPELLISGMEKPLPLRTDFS
Procedure: Each sample was prepared in a total volume of 40 μL that contained a 5× final concentration of SYPRO orange (Invitrogen, Carlsbad, CA, USA) in buffer (20 mM of HEPES pH 7.5, 150 mM of NaCl, 1 mM of DTT, and 1 mM of MgCl2) and 4 μM of STING C-terminal domain protein with and without a test article. […] The resulting fluorescence intensity from the raw dissociation curve data were used to determine the melting temperature for STING protein alone or with a compound. Melting temperature from protein alone was then subtracted from all melting temperatures of protein in the presence of compound, and a resulting melting temperature vs. compound concentration provided apparent Kd values as generated using a sigmoidal dose–response (variable slope) equation in GraphPadPrism version 8.0 (GraphPad Software, Boston, MA, USA).

Plasma stability, human = type: in vitro ADME; settings: 37 °C, read-out: Plasma t½, Human
Procedure: The plasma stability assay was carried out on 96-well microtiter plates. The test compounds at 5 µM and the reference compound (propantheline) at 1 µM final concentration were incubated separately at 37 °C with mouse or human plasma for 0, 30, 60, and 240 min. At the end of each incubation time point, 300 μL of the quenching solution (50% acetonitrile, 50% methanol, and 0.05% formic acid) containing the internal standard was added to each well. The incubation plates were sealed, vortexed, and centrifuged at 4 °C for 15 min at 4000 rpm. The supernatant was transferred to fresh plates for LC/MS/MS analysis of the test compounds. The peak area ratios of each test compound over the internal standard were plotted against incubation time, and the t½ was calculated from the curve assuming first-order kinetics.

[1] = Table 2 study, 25 μg IT, n = 10
[2] = Table 2 study, 100 μg IT, n = 10
[3] = Table 3/4 study, 25 μg IT, n = 10

In the case of `CO[C@H]1[C@H]2OP(=O)(O)OC[C@@]34C[C@@H]3[C@@H](n3cnc5c(N)ncnc53)[C@H](O)[C@@H]4O[P@](=O)(S)OC[C@H]1O[C@H]2n1cnc2c(=O)[nH]c(N)nc21` [ALG-031048], the “Animals with complete tumor suppression (TV < 10 mm^3) after CT26 re-challenge” value (CT26 tumors; Figure 5C, previously 100 μg IT × 3, CT26 left flank, 25 days, no further treatment) was “six”, the “TV at last measurement of animals with delayed tumor growth after CT26 re-challenge” value (CT26 tumors; Figure 5C, three animals) was 40–221 mm^3 and the “TV at end of study of remaining re-challenged animal” value (CT26 tumors; complete responders to 100 μg IT 3 × q3d, CT26 re-challenge) was 864 mm^3. For the same compound, the “Animals with tumor growth suppressed after CT26 re-challenge” value (CT26 tumors; complete responders to 100 μg IT 3 × q3d, re-challenged on opposite flank, 40 days without additional treatment) was 8 of 9, the “Cell viability of HEK 293 reporter cells” value (HEK 293 reporter cells) was “did not cause any loss of cell viability” and the “Tumor weight at end of study” value (Hepa1–6 tumors; Hepa1–6, IT 25 and 100 μg) was “reduction in tumor weight”. The “Tumor reduction at end of study” value (Hepa1–6 tumors; Hepa1–6, three IT doses of 25 μg (Days 1, 5, 9)) was 12%, the “Mean tumor reduction at end of study” value (Hepa1–6 tumors; Hepa1–6, three IT doses of 100 μg (Days 1, 5, 9)) was 88% and the “Complete tumor regression, animals” value (Hepa1–6 tumors; Hepa1–6 model) was 100%. For the same compound, the “Delay of tumor growth compared with vehicle” value (subcutaneous CT26 tumors; CT26, 1 mg/kg SC) was 4.0 days, the “Delay of tumor growth compared with vehicle” value (subcutaneous CT26 tumors; CT26, 4 mg/kg SC) was 21.0 days and the “Time mice remained tumor-free after the last dose” value (subcutaneous CT26 tumors; CT26, longest observation in any study) was “approximately 2.5 months”. For the same compound, the “Complete tumor suppression, initial CT26 tumor” value (subcutaneous CT26 tumors; Figure 5B study, three IT doses of 100 μg) was 100%, the “Delayed Response (TV > 10 and <2000 mm^3)” value (subcutaneous CT26 tumors; [1]) was 10% ^c and the “Treatment Failure (TV > 2000 mm^3)” value (subcutaneous CT26 tumors; [1]) was 44% ^c. For the same compound, the “Delayed Response (TV > 10 and <2000 mm^3)” value (subcutaneous CT26 tumors; [2]) was 0%, the “Treatment Failure (TV > 2000 mm^3)” value (subcutaneous CT26 tumors; [2]) was 10% and the “Complete Response (TV < 10 mm^3)” value (subcutaneous CT26 tumors; [3]) was 0%. For the same compound, the “Delayed Response (TV > 10 and <2000 mm^3)” value (subcutaneous CT26 tumors; [3]) was 0%, the “Treatment Failure (TV > 2000 mm^3)” value (subcutaneous CT26 tumors; [3]) was 100% and the “TV at end of study of animal with delayed response” value (subcutaneous CT26 tumors; Table 4 study, 100 μg IT) was 18 mm^3. The “Delayed Response (TV > 10 and <2000 mm^3)” value (subcutaneous CT26 tumors; Table 4 study, 100 μg IT) was 10% ^b, the “Treatment Failure (TV > 2000 mm^3)” value (subcutaneous CT26 tumors; Table 4 study, 100 μg IT) was 50% and the “Complete Response (TV < 10 mm^3)” value (subcutaneous CT26 tumors; Table 4 study, 100 μg IT, n = 10) was 40%. For the same compound, the “Median Time to Endpoint” value (subcutaneous CT26 tumors; Table 4 study, 100 μg IT) was 38.0 days, the “Delayed Response (TV > 10 and <2000 mm^3)” value (subcutaneous CT26 tumors; Table 4 study, 1 mg/kg SC) was 0% and the “Treatment Failure (TV > 2000 mm^3)” value (subcutaneous CT26 tumors; Table 4 study, 1 mg/kg SC) was 100%. For the same compound, the “Complete Response (TV < 10 mm^3)” value (subcutaneous CT26 tumors; Table 4 study, 1 mg/kg SC, n = 10) was 0%, the “Median Time to Endpoint” value (subcutaneous CT26 tumors; Table 4 study, 1 mg/kg SC) was 21.0 days and the “TV at end of study of animal with delayed response” value (subcutaneous CT26 tumors; Table 4 study, 4 mg/kg SC) was 1568 mm^3. The “Delayed Response (TV > 10 and <2000 mm^3)” value (subcutaneous CT26 tumors; Table 4 study, 4 mg/kg SC) was 10% ^a, the “Treatment Failure (TV > 2000 mm^3)” value (subcutaneous CT26 tumors; Table 4 study, 4 mg/kg SC) was 80% and the “Complete Response (TV < 10 mm^3)” value (subcutaneous CT26 tumors; Table 4 study, 4 mg/kg SC, n = 10) was 10%. For the same compound, the “Median Time to Endpoint” value (subcutaneous CT26 tumors; Table 4 study, 4 mg/kg SC) was 35.0 days, the “Tumor Reduction vs. Group 1 (vehicle)” value (MC38-hPD-L1 tumors; Day 11) was 40.3% and the “TV on Day 11 (Median)” value (MC38-hPD-L1 tumors; n = 10, vehicle 2268) was 1353 mm^3. For the same compound, the pKd (STING R232) was 5.57, the Maximum temperature shift (STING R232; STING R232 thermal shift assay, mean±standard deviation) was 13.8 °C and 13.8±2.98 °C and the half-life at 5 µM (Plasma stability, human) was greater than 60 min.
